# Molecular target: T1, SLC1A3 (Homo sapiens, UniProt P43003)
# T1 construct: overexpressed in HEK293-JI cells co-expressing iAspSnFR
# Experiment: cellular uptake read by iAspSnFR, flow cytometry
# Format: cell-based
# Details: range is the 95% CI, no central value printed; 3 h starved cells, 30 min incubation; first (TFB-TBOA-sensitive) phase of a biphasic curve; read-out: K0.5
# T1 sequence (P43003 whole entry): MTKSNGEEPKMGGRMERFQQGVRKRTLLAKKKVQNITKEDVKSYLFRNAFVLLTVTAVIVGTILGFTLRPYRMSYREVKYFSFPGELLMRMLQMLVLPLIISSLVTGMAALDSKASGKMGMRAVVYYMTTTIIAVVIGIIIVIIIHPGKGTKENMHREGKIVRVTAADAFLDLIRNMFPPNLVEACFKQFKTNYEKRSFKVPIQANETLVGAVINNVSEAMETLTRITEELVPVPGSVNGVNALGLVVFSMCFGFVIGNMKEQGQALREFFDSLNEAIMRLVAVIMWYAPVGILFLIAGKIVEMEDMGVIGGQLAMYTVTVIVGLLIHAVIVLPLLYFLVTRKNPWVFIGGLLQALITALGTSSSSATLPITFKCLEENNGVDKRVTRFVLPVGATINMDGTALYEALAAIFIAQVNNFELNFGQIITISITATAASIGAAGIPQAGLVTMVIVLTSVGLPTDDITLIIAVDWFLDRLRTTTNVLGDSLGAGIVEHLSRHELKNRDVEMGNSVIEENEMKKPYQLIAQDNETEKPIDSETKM
smiles,measurement,value
N[C@@H](CC(=O)O)C(=O)O [aspartate],Km,9 to 47 µM

# Source: publication doi:10.1101/2023.05.04.537313v1 (biorxiv, 2023)
